Experimental data: patent US9029325B2, “Amylin analogues and pharmaceutical compositions thereof” (Novo Nordisk A/S, priority 2011, dated 2015)
Starred links: 1 amine or outer side, 2 acyl side, 3 side chain; linkers in the order of their positions; H or OH if unused. Positions of bridges follow the written chain, without caps; N, C: chain ends. Non-standard residues stand in square brackets, D forms with d. Residues, ends and D or L forms follow the SMILES beside them. Groups on a side chain read outwards from the residue. *: point of attachment. C20 diacid = O=C(O)CCCCCCCCCCCCCCCCCCC(=O)*; C18 diacid = O=C(O)CCCCCCCCCCCCCCCCC(=O)*; γGlu = O=C(O)[C@H](CCC(=O)[*:2])N[*:1]; Orn = NCCC[C@H](N)C(=O)O; AEEA = NCCOCCOCC(=O)O

Test: Assay (I) efficacy testing on appetite (food intake), ad libitum fed rat model
Assay type: in vivo, Sprague Dawley (SD) rats
Conditions: 3 nmol/kg
In short: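 Ad libitum fed SD rats (200-250 g) on a reversed light cycle, housed individually, received a single 0.01-3 mg/kg dose ip, po or sc just before lights-off. Individual food intake recorded hourly for 7 h, then at 24 h and sometimes 48 h, versus vehicle; Grubbs outliers excluded.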

| Structure (SMILES) | Food intake reduction 0-24 h 3 nmol/kg (%) | Food intake reduction 24-48 h 3 nmol/kg (%) |
| --- | --- | --- |
| CC[C@H](C)[C@H](NC(=O)[C@@H]1CCCN1C(=O)CNC(=O)[C@H](Cc1ccccc1)NC(=O)[C@H](CC(N)=O)NC(=O)[C@H](CC(N)=O)NC(=O)[C@H](CO)NC(=O)[C@H](CO)NC(=O)[C@H](Cc1c[nH]cn1)NC(=O)[C@H](Cc1c[nH]cn1)NC(=O)[C@H](CC(C)C)NC(=O)[C@H](Cc1ccccc1)NC(=O)[C@H](CCC(=O)O)NC(=O)[C@H](C)NC(=O)[C@H](CC(C)C)NC(=O)[C@H](CCCNC(=N)N)NC(=O)[C@H](CCC(N)=O)NC(=O)[C@@H](NC(=O)[C@H](C)NC(=O)[C@@H]1CSSC[C@H](NC(=O)[C@H](Cc2c[nH]cn2)NC(=O)CC[C@H](NC(=O)CCCCCCCCCCCCCCCCCCC(=O)O)C(=O)O)C(=O)N[C@@H](CC(N)=O)C(=O)N[C@@H]([C@@H](C)O)C(=O)N[C@@H](C)C(=O)N[C@@H]([C@@H](C)O)C(=O)N1)[C@@H](C)O)C(=O)N[C@@H](CC(C)C)C(=O)N1CCC[C@H]1C(=O)N1CCC[C@H]1C(=O)N[C@H](C(=O)N[C@@H](CC(N)=O)C(=O)N[C@H](C(=O)NCC(=O)N[C@@H](CO)C(=O)N[C@@H](CC(N)=O)C(=O)N[C@H](C(=O)N[C@@H](Cc1ccc(O)cc1)C(N)=O)[C@@H](C)O)C(C)C)[C@@H](C)O [compound 18] ({C20 diacid-γGlu}-HCNTATCATQRLAEFLHHSSNNFGPILPPTNVGSNTY-NH2; disulfide 2-7) | 40% | 32% |
| CC[C@H](C)[C@H](NC(=O)[C@@H]1CCCN1C(=O)CNC(=O)[C@H](Cc1ccccc1)NC(=O)[C@H](CC(N)=O)NC(=O)[C@H](CC(N)=O)NC(=O)[C@H](CO)NC(=O)[C@H](CO)NC(=O)[C@H](CCCNC(=N)N)NC(=O)[C@H](Cc1c[nH]cn1)NC(=O)[C@H](CC(C)C)NC(=O)[C@H](Cc1ccccc1)NC(=O)[C@H](CCC(=O)O)NC(=O)[C@H](C)NC(=O)[C@H](CC(C)C)NC(=O)[C@H](CCCNC(=N)N)NC(=O)[C@H](CCC(N)=O)NC(=O)[C@@H](NC(=O)[C@H](C)NC(=O)[C@@H]1CSSC[C@H](NC(=O)[C@H](CCCN)NC(=O)[C@@H](CCCNC(=N)N)NC(=O)[C@@H](CCCNC(=N)N)NC(=O)COCCOCCNC(=O)COCCOCCNC(=O)CC[C@H](NC(=O)CCCCCCCCCCCCCCCCC(=O)O)C(=O)O)C(=O)N[C@@H](CC(N)=O)C(=O)N[C@@H]([C@@H](C)O)C(=O)N[C@@H](C)C(=O)N[C@@H]([C@@H](C)O)C(=O)N1)[C@@H](C)O)C(=O)N[C@@H](CC(C)C)C(=O)N1CCC[C@H]1C(=O)N1CCC[C@H]1C(=O)N[C@H](C(=O)N[C@@H](CC(N)=O)C(=O)N[C@H](C(=O)NCC(=O)N[C@@H](CO)C(=O)N[C@@H](CC(N)=O)C(=O)N[C@H](C(=O)N[C@@H](Cc1ccc(O)cc1)C(N)=O)[C@@H](C)O)C(C)C)[C@@H](C)O [compound 120] ({C18 diacid-γGlu-AEEA-AEEA}-[dR][dR][Orn]CNTATCATQRLAEFLHRSSNNFGPILPPTNVGSNTY-NH2; disulfide 4-9 (inferred); C-terminus assumed) | 53% | 2% |
| CC[C@H](C)[C@H](NC(=O)[C@@H]1CCCN1C(=O)CNC(=O)[C@H](Cc1ccccc1)NC(=O)[C@H](CC(N)=O)NC(=O)[C@H](CC(N)=O)NC(=O)[C@H](CO)NC(=O)[C@H](CO)NC(=O)[C@H](CCCNC(=N)N)NC(=O)[C@@H](NC(=O)[C@H](CC(C)C)NC(=O)[C@H](Cc1ccccc1)NC(=O)[C@H](CCC(=O)O)NC(=O)[C@H](C)NC(=O)[C@H](CC(C)C)NC(=O)[C@H](CCCNC(=N)N)NC(=O)[C@H](CCC(N)=O)NC(=O)[C@@H](NC(=O)[C@H](C)NC(=O)[C@@H]1CSSC[C@H](NC(=O)[C@H](Cc2c[nH]cn2)NC(=O)CC[C@H](NC(=O)CCCCCCCCCCCCCCCCCCC(=O)O)C(=O)O)C(=O)N[C@@H](CC(N)=O)C(=O)N[C@@H]([C@@H](C)O)C(=O)N[C@@H](C)C(=O)N[C@@H]([C@@H](C)O)C(=O)N1)[C@@H](C)O)C(C)C)C(=O)N[C@@H](CC(C)C)C(=O)N1CCC[C@H]1C(=O)N1CCC[C@H]1C(=O)N[C@H](C(=O)N[C@@H](CC(N)=O)C(=O)N[C@H](C(=O)NCC(=O)N[C@@H](CO)C(=O)N[C@@H](CC(N)=O)C(=O)N[C@H](C(=O)N[C@@H](Cc1ccc(O)cc1)C(N)=O)[C@@H](C)O)C(C)C)[C@@H](C)O [compound 15] ({C20 diacid-γGlu}-HCNTATCATQRLAEFLVRSSNNFGPILPPTNVGSNTY-NH2; disulfide 2-7 (inferred); C-terminus assumed) | 56% | 59% |
| CC[C@H](C)[C@H](NC(=O)[C@H](CCCCNC(=O)COCCOCCNC(=O)COCCOCCNC(=O)CC[C@H](NC(=O)CCCCCCCCCCCCCCCCC(=O)O)C(=O)O)NC(=O)CNC(=O)[C@H](Cc1ccccc1)NC(=O)[C@H](CC(N)=O)NC(=O)[C@H](CC(N)=O)NC(=O)[C@H](CO)NC(=O)[C@H](CO)NC(=O)[C@H](Cc1c[nH]cn1)NC(=O)[C@H](Cc1c[nH]cn1)NC(=O)[C@H](CC(C)C)NC(=O)[C@H](Cc1ccccc1)NC(=O)[C@H](CCC(=O)O)NC(=O)[C@H](C)NC(=O)[C@H](CC(C)C)NC(=O)[C@H](CCCNC(=N)N)NC(=O)[C@H](CCC(N)=O)NC(=O)[C@@H](NC(=O)[C@H](C)NC(=O)[C@@H]1CSSC[C@H](NC(=O)[C@@H](N)CCCCN)C(=O)N[C@@H](CC(N)=O)C(=O)N[C@@H]([C@@H](C)O)C(=O)N[C@@H](C)C(=O)N[C@@H]([C@@H](C)O)C(=O)N1)[C@@H](C)O)C(=O)N[C@@H](CC(C)C)C(=O)N1CCC[C@H]1C(=O)N1CCC[C@H]1C(=O)N[C@H](C(=O)N[C@@H](CC(N)=O)C(=O)N[C@H](C(=O)NCC(=O)N[C@@H](CO)C(=O)N[C@@H](CC(N)=O)C(=O)N[C@H](C(=O)N[C@@H](Cc1ccc(O)cc1)C(N)=O)[C@@H](C)O)C(C)C)[C@@H](C)O [compound 73] (H-KCNTATCATQRLAEFLHHSSNNFGK([AEEA-AEEA-γGlu-C18 diacid])ILPPTNVGSNTY-NH2; disulfide 2-7 (inferred); N-terminus and C-terminus assumed) | 29% | 2% |
| CC[C@H](C)[C@H](NC(=O)[C@@H]1CCCN1C(=O)CNC(=O)[C@H](Cc1ccccc1)NC(=O)[C@H](CC(N)=O)NC(=O)[C@H](CCC(N)=O)NC(=O)[C@H](CO)NC(=O)[C@H](CO)NC(=O)[C@H](Cc1c[nH]cn1)NC(=O)[C@H](Cc1c[nH]cn1)NC(=O)[C@H](CC(C)C)NC(=O)[C@H](Cc1ccccc1)NC(=O)[C@H](CCC(=O)O)NC(=O)[C@H](C)NC(=O)[C@H](CC(C)C)NC(=O)[C@H](CCCNC(=N)N)NC(=O)[C@H](CCC(N)=O)NC(=O)[C@@H](NC(=O)[C@H](C)NC(=O)[C@@H]1CSSC[C@H](NC(=O)[C@H](CCCCN)NC(=O)CC[C@H](NC(=O)CCCCCCCCCCCCCCCCCCC(=O)O)C(=O)O)C(=O)N[C@@H](CC(N)=O)C(=O)N[C@@H]([C@@H](C)O)C(=O)N[C@@H](C)C(=O)N[C@@H]([C@@H](C)O)C(=O)N1)[C@@H](C)O)C(=O)N[C@@H](CC(C)C)C(=O)N1CCC[C@H]1C(=O)N1CCC[C@H]1C(=O)N[C@H](C(=O)N[C@@H](CC(N)=O)C(=O)N[C@H](C(=O)NCC(=O)N[C@@H](CO)C(=O)N[C@@H](Cc1c[nH]cn1)C(=O)N[C@H](C(=O)N[C@@H](Cc1ccc(O)cc1)C(N)=O)[C@@H](C)O)C(C)C)[C@@H](C)O [compound 117] ({C20 diacid-γGlu}-KCNTATCATQRLAEFLHHSSQNFGPILPPTNVGSHTY-NH2; disulfide 2-7 (inferred); C-terminus assumed) | 50% | 35% |
| CC[C@H](C)[C@H](NC(=O)[C@@H]1CCCN1C(=O)CNC(=O)[C@H](Cc1ccccc1)NC(=O)[C@H](CC(N)=O)NC(=O)[C@H](CC(N)=O)NC(=O)[C@H](CO)NC(=O)[C@H](CO)NC(=O)[C@H](Cc1c[nH]cn1)NC(=O)[C@H](Cc1c[nH]cn1)NC(=O)[C@H](CC(C)C)NC(=O)[C@H](Cc1ccccc1)NC(=O)[C@H](CCC(=O)O)NC(=O)[C@H](C)NC(=O)[C@H](CC(C)C)NC(=O)[C@H](CCCNC(=N)N)NC(=O)[C@H](CCC(N)=O)NC(=O)[C@@H](NC(=O)[C@H](C)NC(=O)[C@@H]1CSSC[C@H](NC(=O)[C@H](CCCCN)NC(=O)CC[C@H](NC(=O)CCCCCCCCCCCCCCCCC(=O)O)C(=O)O)C(=O)N[C@@H](CC(N)=O)C(=O)N[C@@H]([C@@H](C)O)C(=O)N[C@@H](C)C(=O)N[C@@H]([C@@H](C)O)C(=O)N1)[C@@H](C)O)C(=O)N[C@@H](CC(C)C)C(=O)N1CCC[C@H]1C(=O)N1CCC[C@H]1C(=O)N[C@H](C(=O)N[C@@H](CC(N)=O)C(=O)N[C@H](C(=O)NCC(=O)N[C@@H](CO)C(=O)N[C@@H](CC(N)=O)C(=O)N[C@H](C(=O)N[C@@H](Cc1ccc(O)cc1)C(N)=O)[C@@H](C)O)C(C)C)[C@@H](C)O [compound 46] ({C18 diacid-γGlu}-KCNTATCATQRLAEFLHHSSNNFGPILPPTNVGSNTY-NH2; disulfide 2-7 (inferred); C-terminus assumed) | 54% | 27% |
| CC[C@H](C)[C@H](NC(=O)[C@@H]1CCCN1C(=O)CNC(=O)[C@H](Cc1ccccc1)NC(=O)[C@H](CC(N)=O)NC(=O)[C@H](CC(N)=O)NC(=O)[C@H](CO)NC(=O)[C@H](CO)NC(=O)[C@H](Cc1c[nH]cn1)NC(=O)[C@H](Cc1c[nH]cn1)NC(=O)[C@H](CC(C)C)NC(=O)[C@H](Cc1ccccc1)NC(=O)[C@H](CCC(=O)O)NC(=O)[C@H](C)NC(=O)[C@H](CC(C)C)NC(=O)[C@H](CCCNC(=N)N)NC(=O)[C@H](CCC(N)=O)NC(=O)[C@@H](NC(=O)[C@H](C)NC(=O)[C@@H]1CSSC[C@H](NC(=O)CC[C@H](NC(=O)CCCCCCCCCCCCCCCCCCC(=O)O)C(=O)O)C(=O)N[C@@H](CC(N)=O)C(=O)N[C@@H]([C@@H](C)O)C(=O)N[C@@H](C)C(=O)N[C@@H]([C@@H](C)O)C(=O)N1)[C@@H](C)O)C(=O)N[C@@H](CC(C)C)C(=O)N1CCC[C@H]1C(=O)N1CCC[C@H]1C(=O)N[C@H](C(=O)N[C@@H](CC(N)=O)C(=O)N[C@H](C(=O)NCC(=O)N[C@@H](CO)C(=O)N[C@@H](CC(N)=O)C(=O)N[C@H](C(=O)N[C@@H](Cc1ccc(O)cc1)C(N)=O)[C@@H](C)O)C(C)C)[C@@H](C)O [compound 28] ({C20 diacid-γGlu}-CNTATCATQRLAEFLHHSSNNFGPILPPTNVGSNTY-NH2; disulfide 1-6 (inferred); C-terminus assumed) | 39% | 36% |
